From patent US8247211B2, “Glycopeptide antibiotics” (American Cyanamid Company, priority 2001, dated 2012)
Values after ≈ are worked out from the molar mass of the structure shown.

How the values were obtained:
Assay in all cases: In vitro antibacterial evaluation: minimum inhibitory concentration (MIC), broth dilution method
Type in all cases: cell-based
Staphylococcus sp. = settings: for MIC Staphylococcus aureus (ATCC 29213): strain ATCC 29213; for MIC Staphylococcus aureus (GC 1131): strain GC 1131; for MIC Staphylococcus aureus (GC 3051): strain GC 3051; for MIC Staphylococcus aureus (GC 3053): strain GC 3053; for MIC Staphylococcus aureus (GC 4541): strain GC 4541; for MIC Staphylococcus aureus (GC 4542): strain GC 4542; for MIC Staphylococcus aureus (GC 4544): strain GC 4544; for MIC Staphylococcus aureus (GC 4545): strain GC 4545
Procedure: (§1) The minimum inhibitory concentration (MIC), the lowest concentration of the antibiotic which inhibits growth of the test organism, is determined by the broth dilution method using Muller-Hinton II […] (Baltimore Biological Laboratories) following the recommendations of the National Committee for Clinical Laboratory Standards [Methods for dilution antimicrobial susceptibility tests for bacteria that grow aerobically, approved standard M7-A2, National Committee for Clinical Laboratory Standards, Villanova, Pa].
(§2) An inoculum level of 5×10^5 CFU/mL, and a range of antibiotic concentrations (64-0.06 μg/mL) is used. […] The test organisms include a spectrum of Gram-positive bacteria comprised of Staphylococcus sp., Streptococcus sp. and Enterococcus sp. These organisms include recent clinical isolates that are resistant to methicillin, penicillin and/or vancomycin.

Escherichia coli = settings: 5×10^5 CFU/mL, 18 hours at 35° C.
Procedure: as §1, §2

Enterococcus sp. = settings: broth dilution, 5×10^5 CFU/mL, 18 hours at 35° C.
Procedure: as §1, §2

Streptococcus sp. = settings: broth dilution, 5×10^5 CFU/mL, 18 hours at 35° C.
Procedure: as §1, §2

[1] = broth dilution, 5×10^5 CFU/mL, 18 hours at 35° C.
[2] = broth dilution, 18 hours at 35° C.

SMILES: CC(c1ccccc1)C1NC(=O)CNC(=O)C(CO)NC(=O)C(C(O)C2CNC(=N)N2C2OC(CO)C(O)C(O)C2O)NC(=O)C(C(O)C2CNC(=N)N2)NC(=O)C(Cc2ccc(OC3OC(CO)C(OC4OC(CO)C(O)C5OC(CC67CC8CC(CC(C8)C6)C7)OC45)C(O)C3O)cc2)NC1=O (centres unmarked) [Example 128]
- MIC Coagulase Negative Staphylococcus (GC 4547) (Staphylococcus sp.; [1]): 4 µg/mL (≈ 2.75 µM)
- MIC Coagulase Negative Staphylococcus (GC 4548) (Staphylococcus sp.; [1]): 2 µg/mL (≈ 1.37 µM)
- MIC Coagulase Negative Staphylococcus (GC 4549) (Staphylococcus sp.; [1]): 2 µg/mL (≈ 1.37 µM)
- MIC Coagulase Negative Staphylococcus (GC 4551) (Staphylococcus sp.; [1]): 4 µg/mL (≈ 2.75 µM)
- MIC Coagulase Negative Staphylococcus (GC 6257) (Staphylococcus sp.; [1]): 2 µg/mL (≈ 1.37 µM)
- MIC Staphylococcus aureus-SMITH (GC 4543) (Staphylococcus sp.; [1]): 2 µg/mL (≈ 1.37 µM)
- MIC Staphylococcus haemolyticus (GC 4546) (Staphylococcus sp.; [1]): 2 µg/mL (≈ 1.37 µM)
- MIC Staphylococcus aureus (ATCC 29213) (Staphylococcus sp.): 2 µg/mL (≈ 1.37 µM)
- MIC Staphylococcus aureus (ATCC 29213) (Staphylococcus sp.; [2]): 2 µg/mL (≈ 1.37 µM)
- MIC Staphylococcus aureus (GC 1131) (Staphylococcus sp.): 4 µg/mL (≈ 2.75 µM)
- MIC Staphylococcus aureus (GC 1131) (Staphylococcus sp.; [2]): 4 µg/mL (≈ 2.75 µM)
- MIC Staphylococcus aureus (GC 3051) (Staphylococcus sp.): 2 µg/mL (≈ 1.37 µM)
- MIC Staphylococcus aureus (GC 3051) (Staphylococcus sp.; [2]): 2 µg/mL (≈ 1.37 µM)
- MIC Staphylococcus aureus (GC 3053) (Staphylococcus sp.): 2 µg/mL (≈ 1.37 µM)
- MIC Staphylococcus aureus (GC 3053) (Staphylococcus sp.; [2]): 2 µg/mL (≈ 1.37 µM)
- MIC Staphylococcus aureus (GC 4541) (Staphylococcus sp.): 2 µg/mL (≈ 1.37 µM)
- MIC Staphylococcus aureus (GC 4541) (Staphylococcus sp.; [2]): 2 µg/mL (≈ 1.37 µM)
- MIC Staphylococcus aureus (GC 4542) (Staphylococcus sp.): 2 µg/mL (≈ 1.37 µM)
- MIC Staphylococcus aureus (GC 4542) (Staphylococcus sp.; [2]): 2 µg/mL (≈ 1.37 µM)
- MIC Staphylococcus aureus-SMITH (GC 4543) (Staphylococcus sp.; strain GC 4543, broth dilution, 18 hours at 35° C.): 2 µg/mL (≈ 1.37 µM)
- MIC Staphylococcus aureus (GC 4544) (Staphylococcus sp.): 4 µg/mL (≈ 2.75 µM)
- MIC Staphylococcus aureus (GC 4544) (Staphylococcus sp.; [2]): 4 µg/mL (≈ 2.75 µM)
- MIC Staphylococcus aureus (GC 4545) (Staphylococcus sp.): 2 µg/mL (≈ 1.37 µM)
- MIC Staphylococcus aureus (GC 4545) (Staphylococcus sp.; [2]): 2 µg/mL (≈ 1.37 µM)
- MIC Staphylococcus haemolyticus (GC 4546) (Staphylococcus sp.; strain GC 4546, broth dilution, 18 hours at 35° C.): 2 µg/mL (≈ 1.37 µM)
- MIC Coagulase Negative Staphylococcus (GC 4547) (Staphylococcus sp.; strain GC 4547, broth dilution, 18 hours at 35° C.): 4 µg/mL (≈ 2.75 µM)
- MIC Coagulase Negative Staphylococcus (GC 4548) (Staphylococcus sp.; strain GC 4548, broth dilution, 18 hours at 35° C.): 2 µg/mL (≈ 1.37 µM)
- MIC Coagulase Negative Staphylococcus (GC 4549) (Staphylococcus sp.; strain GC 4549, broth dilution, 18 hours at 35° C.): 2 µg/mL (≈ 1.37 µM)
- MIC Coagulase Negative Staphylococcus (GC 4551) (Staphylococcus sp.; strain GC 4551, broth dilution, 18 hours at 35° C.): 4 µg/mL (≈ 2.75 µM)
- MIC Coagulase Negative Staphylococcus (GC 6257) (Staphylococcus sp.; strain GC 6257, broth dilution, 18 hours at 35° C.): 2 µg/mL (≈ 1.37 µM)
- MIC Escherichia coli (ATCC 25922) (Escherichia coli): 32 µg/mL (≈ 22 µM)
- MIC Escherichia coli (GC 4559) (Escherichia coli): 32 µg/mL (≈ 22 µM)
- MIC Escherichia coli (GC 4560) (Escherichia coli): 4 µg/mL (≈ 2.75 µM)
- MIC Enterococccus avium (GC 4558) (Enterococcus sp.): 4 µg/mL (≈ 2.75 µM)
- MIC Enterococccus faecalis (ATCC 29212) (Enterococcus sp.): 4 µg/mL (≈ 2.75 µM)
- MIC Enterococccus faecalis (GC 2691) (Enterococcus sp.): 4 µg/mL (≈ 2.75 µM)
- MIC Enterococccus faecalis (GC 3059) (Enterococcus sp.): 4 µg/mL (≈ 2.75 µM)
- MIC Enterococccus faecalis (GC 4552) (Enterococcus sp.): 4 µg/mL (≈ 2.75 µM)
- MIC Enterococccus faecalis (GC 4553) (Enterococcus sp.): 4 µg/mL (≈ 2.75 µM)
- MIC Enterococccus faecalis (GC 4554) (Enterococcus sp.): 4 µg/mL (≈ 2.75 µM)
- MIC Enterococccus faecalis (GC 6189) (Enterococcus sp.): 4 µg/mL (≈ 2.75 µM)
- MIC Enterococccus faecium (GC 2243) (Enterococcus sp.): 4 µg/mL (≈ 2.75 µM)
- MIC Enterococccus faecium (GC 4556) (Enterococcus sp.): 4 µg/mL (≈ 2.75 µM)
- MIC Enterococccus faecium (GC 4557) (Enterococcus sp.): 4 µg/mL (≈ 2.75 µM)
- MIC Enterococcus faecalis (GC 2242) (Enterococcus sp.): 4 µg/mL (≈ 2.75 µM)
- MIC Streptococcus agalactiae (GC 4564) (Streptococcus sp.): 0.25 µg/mL (≈ 0.172 µM)
- MIC Streptococcus pneumoniae (GC 1894) (Streptococcus sp.): <0.06 µg/mL
- MIC Streptococcus pneumoniae (GC 4565) (Streptococcus sp.): 0.12 µg/mL (≈ 0.0824 µM)
- MIC Streptococcus pneumonine (ATCC 6301) (Streptococcus sp.): 0.25 µg/mL (≈ 0.172 µM)
- MIC Streptococcus pyogenes (GC 4563) (Streptococcus sp.): 0.5 µg/mL (≈ 0.344 µM)
